Results: ChEMBL document CHEMBL1208753, “Peptide deformylase inhibitors with retro-amide scaffold: synthesis and structure-activity relationships” (Bioorg Med Chem Lett, 2010)
pIC50: −log10 of the molar value. In brackets after ≈: the same amount, converted by molar mass.

How the values were obtained:
Peptide deformylase = target: T1, Peptide deformylase (Pseudomonas aeruginosa (strain ATCC 15692 / PAO1 / 1C / PRS 101 / LMG12228), UniProt Q9I7A8); assay: Inhibition of Pseudomonas aeruginosa Peptide deformylase by fluorescence analysis
T1 sequence (Q9I7A8 whole entry): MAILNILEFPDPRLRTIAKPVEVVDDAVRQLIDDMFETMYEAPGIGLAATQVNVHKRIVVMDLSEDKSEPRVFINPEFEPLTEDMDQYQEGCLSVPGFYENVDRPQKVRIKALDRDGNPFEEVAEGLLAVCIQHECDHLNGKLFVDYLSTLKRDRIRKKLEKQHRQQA

Moraxella catarrhalis = assay: Antimicrobial activity against Moraxella catarrhalis ATCC 43617 after 48 hrs; format: functional; conditions: ATCC 43617, 48 h
Haemophilus influenzae = assay: Antimicrobial activity against Haemophilus influenzae ATCC 51907 after 24 hrs; format: functional; conditions: ATCC 51907, 24 h
Streptococcus pneumoniae = assay: Antimicrobial activity against Streptococcus pneumoniae ATCC 6305 after 48 hrs; format: functional; conditions: ATCC 6305, 48 h

| Structure (SMILES) | pIC50 (Peptide deformylase) | MIC (Moraxella catarrhalis) | MIC (Haemophilus influenzae) | MIC (Streptococcus pneumoniae) |
| --- | --- | --- | --- | --- |
| CN(C(=O)N[C@H](C(=O)N(CC(=O)NO)CC1CCCC1)C(C)(C)C)c1ccccc1 | 7.30 | 0.4 µg/mL (≈ 0.956 µM) | 25 µg/mL (≈ 59.7 µM) | 50 µg/mL (≈ 119 µM) |
| CC(C)(C)[C@H](NC(=O)N1CCCCC1)C(=O)N(CC(=O)NO)CC1CCCC1 | 7.33 | 0.8 µg/mL (≈ 2.02 µM) | 12.5 µg/mL (≈ 31.5 µM) | 12.5 µg/mL (≈ 31.5 µM) |
| COc1ccccc1NC(=O)N[C@H](C(=O)N(CCC1CCCC1)CC(=O)NO)C(C)(C)C | 7.51 | 0.1 µg/mL (≈ 0.223 µM) | 0.8 µg/mL (≈ 1.78 µM) | 0.4 µg/mL (≈ 0.892 µM) |
| COc1ccccc1NC(=O)N[C@H](C(=O)N(CC(=O)NO)CC1CC1)C(C)(C)C | 7.82 | 1.6 µg/mL (≈ 3.94 µM) | 6.3 µg/mL (≈ 15.5 µM) | 12.5 µg/mL (≈ 30.8 µM) |
| CC(C)(C)[C@H](NC(=O)c1ccccc1)C(=O)N(CC(=O)NO)CC1CCCC1 | 7.39 | 0.1 µg/mL (≈ 0.257 µM) | 3.2 µg/mL (≈ 8.22 µM) | 12.5 µg/mL (≈ 32.1 µM) |
| CC(C)(C)[C@H](NC(=O)Nc1cccnc1)C(=O)N(CC(=O)NO)CC1CCCC1 | 7.31 | 0.1 µg/mL (≈ 0.247 µM) | 3.2 µg/mL (≈ 7.89 µM) | 6.3 µg/mL (≈ 15.5 µM) |
| COc1ccccc1NC(=O)N[C@@H](Cc1ccccc1)C(=O)N(CC(=O)NO)CC1CCCC1 | 7.21 | 12.5 µg/mL (≈ 26.7 µM) | 25 µg/mL (≈ 53.4 µM) | 25 µg/mL (≈ 53.4 µM) |
| CC(C)(C)[C@H](NC(=O)NC1CCCCC1)C(=O)N(CC(=O)NO)CC1CCCC1 | 7.26 | 0.1 µg/mL (≈ 0.244 µM) | 6.3 µg/mL (≈ 15.3 µM) | 6.3 µg/mL (≈ 15.3 µM) |
| COc1ccccc1NC(=O)N[C@@H](C)C(=O)N(CC(=O)NO)CC1CCCC1 | 7.38 | 12.5 µg/mL (≈ 31.9 µM) | 12.5 µg/mL (≈ 31.9 µM) | 6.3 µg/mL (≈ 16.1 µM) |
| COc1ccccc1NC(=O)N[C@H](C(=O)N(CC(=O)NO)CC1CCC1)C(C)(C)C | 7.89 | 0.1 µg/mL (≈ 0.238 µM) | 0.4 µg/mL (≈ 0.951 µM) | 0.4 µg/mL (≈ 0.951 µM) |
| CC(C)(C)[C@H](NC(=O)N1CCOCC1)C(=O)N(CC(=O)NO)CC1CCCC1 | 7.55 | 0.2 µg/mL (≈ 0.502 µM) | 12.5 µg/mL (≈ 31.4 µM) | 25 µg/mL (≈ 62.7 µM) |
| CC(C)(C)[C@H](NC(=O)Nc1ccccc1)C(=O)N(CC(=O)NO)CC1CCCC1 | 7.77 | 0.1 µg/mL (≈ 0.247 µM) | 0.4 µg/mL (≈ 0.989 µM) | 3.2 µg/mL (≈ 7.91 µM) |
| CC[C@@H](C)[C@H](NC(=O)Nc1ccccc1OC)C(=O)N(CC(=O)NO)CC1CCCC1 | 7.49 | 0.2 µg/mL (≈ 0.46 µM) | 1.6 µg/mL (≈ 3.68 µM) | 3.2 µg/mL (≈ 7.36 µM) |
| CC(C)(C)[C@H](NC(=O)c1cccs1)C(=O)N(CC(=O)NO)CC1CCCC1 | 7.72 | 0.2 µg/mL (≈ 0.506 µM) | 1.6 µg/mL (≈ 4.05 µM) | 12.5 µg/mL (≈ 31.6 µM) |
| COc1ccccc1NC(=O)N[C@@H](CC(C)C)C(=O)N(CC(=O)NO)CC1CCCC1 | 7.44 | 0.8 µg/mL (≈ 1.84 µM) | 3.2 µg/mL (≈ 7.36 µM) | 3.2 µg/mL (≈ 7.36 µM) |
| COc1ccccc1NC(=O)N[C@H](C(=O)N(CC(=O)NO)CC1CCCC1)C(C)C | 7.89 | 0.1 µg/mL (≈ 0.238 µM) | 0.8 µg/mL (≈ 1.9 µM) | 0.8 µg/mL (≈ 1.9 µM) |
| CC(C)(C)[C@H](NC(=O)Nc1ccncc1)C(=O)N(CC(=O)NO)CC1CCCC1 | 7.19 | 0.2 µg/mL (≈ 0.493 µM) | 6.3 µg/mL (≈ 15.5 µM) | 25 µg/mL (≈ 61.7 µM) |
| COc1ccccc1NC(=O)N[C@H](C(=O)N(CCC(C)C)CC(=O)NO)C(C)(C)C | 7.68 | 0.1 µg/mL (≈ 0.237 µM) | 0.8 µg/mL (≈ 1.89 µM) | 0.8 µg/mL (≈ 1.89 µM) |
| CC(C)(C)[C@H](NC(=O)Nc1ccccn1)C(=O)N(CC(=O)NO)CC1CCCC1 | 7.27 | 0.1 µg/mL (≈ 0.247 µM) | 0.8 µg/mL (≈ 1.97 µM) | 12.5 µg/mL (≈ 30.8 µM) |
| COc1ccccc1C(=O)N[C@H](C(=O)N(CC(=O)NO)CC1CCCC1)C(C)(C)C | 7.96 | 0.1 µg/mL (≈ 0.238 µM) | 0.4 µg/mL (≈ 0.953 µM) | 50 µg/mL (≈ 119 µM) |
| COc1ccccc1NC(=O)N[C@H](C(=O)N(CC(=O)NO)CC1CCCC1)C(C)(C)C | 7.54 | 0.1 µg/mL (≈ 0.23 µM) | 0.2 µg/mL (≈ 0.46 µM) | 0.2 µg/mL (≈ 0.46 µM) |
| COc1ccccc1NC(=O)N1CCC[C@H]1C(=O)N(CC(=O)NO)CC1CCCC1 | 6.94 | 50 µg/mL (≈ 119 µM) | 200 µg/mL (≈ 478 µM) | 200 µg/mL (≈ 478 µM) |
| CC(C)C(=O)N[C@H](C(=O)N(CC(=O)NO)CC1CCCC1)C(C)(C)C | 7.28 | 0.8 µg/mL (≈ 2.25 µM) | 50 µg/mL (≈ 141 µM) | 100 µg/mL (≈ 281 µM) |
| COCCNC(=O)N[C@H](C(=O)N(CC(=O)NO)CC1CCCC1)C(C)(C)C | 7.38 | 0.1 µg/mL (≈ 0.259 µM) | 6.3 µg/mL (≈ 16.3 µM) | 6.3 µg/mL (≈ 16.3 µM) |
